US20240158446A1, “CYCLIC COMPOUND HAVING SELECTIVE INHIBITORY ACTION ON KRAS OVER HRAS AND NRAS” (CHUGAI SEIYAKU KABUSHIKI KAISHA, priority 2021, published 2024)
Read-outs that look alike come from different tables or passages of the source. Where a SMILES comes first, the peptide text is derived from it. Bridges are numbered along the chain shown (N, C = ends). [ ]: non-standard residue; d: D form. The star is where a group is joined. ξ: configuration not given here. hPhe(3-Cl-4-CF3) = N[C@@H](CCc1ccc(C(F)(F)F)c(Cl)c1)C(=O)O; NPrPhe(4-CF3) = CCCN[C@@H](Cc1ccc(C(F)(F)F)cc1)C(=O)O; NPrPhe(4-Me) = CCCN[C@@H](Cc1ccc(C)cc1)C(=O)O; NEtPhe(4-Me) = CCN[C@@H](Cc1ccc(C)cc1)C(=O)O; NMeGly(cPent) = CN[C@H](C(=O)O)C1CCCC1; NMeD = CN[C@@H](CC(=O)O)C(=O)O; NMeL = CN[C@@H](CC(C)C)C(=O)O; NMeV = CN[C@H](C(=O)O)C(C)C; ξNMeD = CNC(CC(=O)O)C(=O)O; Pip = O=C(O)[C@@H]1CCCCN1; Morpholide = C1CN(*)CCO1; Piperidide = C1CCN(*)CC1; Ac5c = NC1(C(=O)O)CCCC1; Aze = O=C(O)[C@@H]1CCN1; ξP = O=C(O)C1CCCN1; Sar = CNCC(=O)O

Experiments:
[1] = molecular target: GDP-bound HRAS wild-type protein (Homo sapiens, UniProt P01112); assay: Binding to HRAS by surface plasmon resonance (SPR), Single Cycle Kinetics; conditions: for HRAS/KRAS (ratio of KD value for HRAS to KD value for KRAS): SPR, GDP-bound HRAS wild-type protein vs GDP-bound KRAS wild-type protein
Sequence of GDP-bound HRAS wild-type protein (P01112 whole entry): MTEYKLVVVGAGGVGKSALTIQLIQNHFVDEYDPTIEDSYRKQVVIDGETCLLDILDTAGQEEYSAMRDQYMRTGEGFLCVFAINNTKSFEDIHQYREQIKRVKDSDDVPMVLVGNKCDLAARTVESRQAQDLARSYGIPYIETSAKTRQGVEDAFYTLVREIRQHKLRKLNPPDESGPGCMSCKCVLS

[2] = molecular target: GDP-bound NRAS wild-type protein (Homo sapiens, UniProt P01111); assay: Binding to NRAS by surface plasmon resonance (SPR), Single Cycle Kinetics; conditions: for NRAS/KRAS (ratio of KD value for NRAS to KD value for KRAS): SPR, GDP-bound NRAS wild-type protein vs GDP-bound KRAS wild-type protein
Sequence of GDP-bound NRAS wild-type protein (P01111 whole entry): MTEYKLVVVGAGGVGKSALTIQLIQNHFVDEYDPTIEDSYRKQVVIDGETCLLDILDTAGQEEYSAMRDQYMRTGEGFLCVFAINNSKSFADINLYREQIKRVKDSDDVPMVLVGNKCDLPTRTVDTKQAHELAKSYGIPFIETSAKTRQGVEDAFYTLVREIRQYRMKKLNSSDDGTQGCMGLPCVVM

[3] = tested on: human lung cancer strain NCI-H441;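 note: cell proliferation inhibition after four days measured by CellTiter-Glo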
[4] = read-out: NCI-H441 IC50, NCI-H441 cells, four days, CellTiter-Glo
[5] = read-out: NCI-H441 IC50, NCI-H441 cell proliferation, 4 days, CellTiter-Glo
[6] = read-out: NCI-H441 cell proliferation inhibitory activity, 50% proliferation inhibitory concentration (IC50 value), NCI-H441, four days, CellTiter-Glo

## CCC[C@H]1C(=O)N[C@H]([C@@H](C)CC)C(=O)N(C)CC(=O)N(C)[C@H]2C/C=C\CCN(C2=O)[C@@H](Cc2ccc(C)cc2)C(=O)N(C)CC(=O)N[C@@H](CCc2cc(F)c(C(F)F)c(F)c2)C(=O)N2C[C@H](OCC)C[C@H]2C(=O)NC2(CC(C)(C)C2)C(=O)N(C)[C@@H](C(CC)CC)C(=O)N(C)[C@H](C(=O)N(C)C)CC(=O)N1C (stereo in doubt) [PP2783]
[1]; SPR KD ratio HRAS/KRAS, class symbols
  HRAS/KRAS (ratio of KD value with respect to GDP-bound HRAS wild-type protein to KD value with respect to KRAS): A (a compound having 10 or more and less than 20 is denoted as A)
[2]; SPR KD ratio NRAS/KRAS, class symbols
  NRAS/KRAS (ratio of KD value with respect to GDP-bound NRAS wild-type protein to KD value with respect to KRAS): A (a compound having 10 or more and less than 20 is denoted as A)
[3]
  IC50: 33.9 nM

## CC[C@H](C)[C@@H]1NC(=O)[C@H](CC(C)C)N(C)C(=O)C[C@@H](C(=O)N2CCOCC2)N(C)C(=O)[C@H](C(C)C)N(C)C(=O)C2(CCCC2)NC(=O)[C@@H]2CCCN2C(=O)[C@H](CCc2ccc(C(F)(F)F)c(Cl)c2)NC(=O)CN(C)C(=O)[C@H](Cc2ccc(C)cc2)N(CC)C(=O)CN(C)C(=O)CN(C)C1=O [PP0044] ([NMeL]I[Sar][Sar][NEtPhe(4-Me)][Sar][hPhe(3-Cl-4-CF3)]P[Ac5c][NMeV][NMeD]-Morpholide; lactam N-11)
[1]
  HRAS/KRAS (ratio of KD value for HRAS to KD value for KRAS): C (A compound having a KD ratio of 0.1 or more and less than 3 is denoted as C)
[2]
  NRAS/KRAS (ratio of KD value for NRAS to KD value for KRAS): C (A compound having a KD ratio of 0.1 or more and less than 3 is denoted as C)
[3]
  IC50: 142 nM

## CCCN1C(=O)[C@@H]2CCN2C(=O)[C@@H]2CCCCN2C(=O)[C@H]([C@@H](C)CC)NC(=O)[C@H](CC(C)C)N(C)C(=O)C[C@@H](C(=O)N2CCOCC2)N(C)C(=O)[C@H](C2CCCC2)N(C)C(=O)C2(CCCC2)NC(=O)[C@@H]2CCCN2C(=O)[C@H](CCc2ccc(C(F)(F)F)c(Cl)c2)NC(=O)CN(C)C(=O)[C@@H]1Cc1ccc(C)cc1 [PP0070] ([NMeL]I[Pip][Aze][NPrPhe(4-Me)][Sar][hPhe(3-Cl-4-CF3)]P[Ac5c][NMeGly(cPent)][NMeD]-Morpholide; lactam N-11)
[1]
  HRAS/KRAS (ratio of KD value for HRAS to KD value for KRAS): B (a compound having 3 or more and less than 10 is denoted as B)
[2]
  NRAS/KRAS (ratio of KD value for NRAS to KD value for KRAS): C (A compound having a KD ratio of 0.1 or more and less than 3 is denoted as C)
[3]
  IC50: 2.1 nM

## CCCN1C(=O)CN(C)C(=O)CN(C)C(=O)[C@H]([C@@H](C)CC)NC(=O)[C@H](CC(C)C)N(C)C(=O)CC(C(=O)N2CCOCC2)N(C)C(=O)[C@H](C2CCCC2)N(C)C(=O)C2(CCCC2)NC(=O)[C@@H]2CCCN2C(=O)[C@H](CCc2ccc(C(F)(F)F)c(Cl)c2)NC(=O)C2CCCN2C(=O)[C@@H]1Cc1ccc(C(F)(F)F)cc1 (some centres unmarked) [PP0149] ([NMeL]I[Sar][Sar][NPrPhe(4-CF3)][ξP][hPhe(3-Cl-4-CF3)]P[Ac5c][NMeGly(cPent)][ξNMeD]-Morpholide; lactam N-11)
[3]
  IC50: 317 nM

## CCCN1C(=O)CN(C)C(=O)CN(C)C(=O)[C@H]([C@@H](C)CC)NC(=O)[C@H](CC(C)C)N(C)C(=O)C[C@@H](C(=O)N2CCCCC2)N(C)C(=O)[C@H](C2CCCC2)N(C)C(=O)C2(CCCC2)NC(=O)[C@@H]2CCCN2C(=O)[C@H](CCc2ccc(C(F)(F)F)c(Cl)c2)NC(=O)CN(C)C(=O)[C@@H]1Cc1ccc(C(F)(F)F)cc1 [PP0171] ([NMeL]I[Sar][Sar][NPrPhe(4-CF3)][Sar][hPhe(3-Cl-4-CF3)]P[Ac5c][NMeGly(cPent)][NMeD]-Piperidide; lactam N-11)
[3]; [4]
  IC50: 6.9 nM

## CCOC1CC2C(=O)NC3(CCC3)C(=O)N(C)C(C(C)CC)C(=O)N(C)[C@H](C(=O)N3CCOCC3)CC(=O)N(C)[C@@H](CC(C)C)C(=O)N[C@@H]([C@@H](C)CC)C(=O)N(C)CC(=O)N(C)[C@H]3CCCCN(C3=O)[C@@H](Cc3ccc(C(F)(F)F)cc3)C(=O)N(C)CC(=O)N[C@@H](CCc3cc(F)c(C(F)(F)F)c(F)c3)C(=O)N2C1 (some centres unmarked) [PP0812]
[3]
  IC50: 17.9 nM

## CC[C@H](C)[C@@H]1NC(=O)[C@H](CC(C)C)N(C)C(=O)C[C@@H](C(=O)N(C)C)N(CCC2CCCC2)C(=O)[C@H](C2CCCC2)N(C)C(=O)C2(CCCC2)NC(=O)[C@@H]2CCCN2C(=O)[C@H](CCc2ccc(C(F)(F)F)c(Cl)c2)NC(=O)CN(C)C(=O)[C@H](Cc2ccc(F)cc2)N2CCCCC[C@@H](C2=O)N(C)C(=O)CN(C)C1=O [PP0975]
[3]
  IC50: 1570 nM

## CCO[C@@H]1C[C@H]2C(=O)NC3(CC(C)(C)C3)C(=O)N(C)[C@@H](C(CC)CC)C(=O)N(C)C(CC)CC(=O)N(C)[C@@H](CC)C(=O)N[C@@H]([C@@H](C)CC)C(=O)N(C)CC(=O)N(C)[C@H]3C/C=C\CCN(C3=O)[C@@H](Cc3ccc(C(F)(F)F)cc3)C(=O)N(C)CC(=O)N[C@@H](CCc3cc(F)c(C(F)(F)F)c(F)c3)C(=O)N2C1 (some centres unmarked) [PP1622]
[3]; [5]
  IC50: 28.1 nM

## CCO[C@@H]1C[C@H]2C(=O)NC3(CCC3)C(=O)N(C)[C@@H](C3CCCC3)C(=O)N(C)[C@H](CC)CC(=O)N(C)[C@@H](CC3CC3)C(=O)N[C@@H]([C@@H](C)CC)C(=O)N(C)CC(=O)N(C)[C@H]3C/C=C\CCN(C3=O)C(Cc3ccc(C(F)(F)F)cc3)C(=O)N(C)CC(=O)N[C@@H](CCc3cc(F)c(C(F)(F)F)c(F)c3)C(=O)N2C1 (some centres unmarked) [PP1631]
[3]; [5]
  IC50: 17.6 nM

## CCCOC[C@H]1C(=O)N[C@@H]([C@@H](C)OCC)C(=O)N(C)CC(=O)N(C)[C@H]2C/C=C\CCN(C2=O)[C@@H](Cc2ccc(C)cc2)C(=O)N(C)CC(=O)N[C@@H](CCc2ccc(C(F)(F)F)c(OC)c2)C(=O)N2C[C@@H](C)C[C@H]2C(=O)NC2(CC(C)(C)C2)C(=O)N(C)[C@@H](C2CCCC2)C(=O)N(C)[C@H](C(=O)N(C)CC)CC(=O)N1C [PP2423]
[3]
  IC50: 71.9 nM

## CC[C@H](C)[C@@H]1NC(=O)[C@H](COC)N(C)C(=O)C[C@@H](C(=O)N(C)C)N(C)C(=O)[C@H](C2CCCC2)N(C)C(=O)C2(CC(C)(C)C2)NC(=O)[C@@H]2C[C@@H](OC3CCCC3)CN2C(=O)[C@H](CCc2cc(F)c(C(F)(F)F)c(F)c2)NC(=O)CN(C)C(=O)[C@H](Cc2ccc(C)cc2)N2CC/C=C\C[C@@H](C2=O)N(C)C(=O)CN(C2CC2)C1=O [PP2626]
[3]
  IC50: 33.4 nM

## CCO[C@@H]1C[C@H]2C(=O)NC3(CC(C)(C)C3)C(=O)N(C)[C@@H](C3CCCC3)C(=O)N(C)[C@H](C(=O)N(C)C)CC(=O)N(C)[C@@H](CC(C)C)C(=O)N[C@@H]([C@@H](C)CC)C(=O)N(C)CC(=O)N(C)[C@H]3C/C=C\CCN(C3=O)[C@@H](Cc3ccc(CC)cc3)C(=O)N(C)CC(=O)N[C@@H](CCc3ccc(C(F)(F)F)c(OC)c3)C(=O)N2C1 [PP2687, (2S,8S,12R,14S,20S,23S,27S,30S,36S,38Z)-20-cyclopentyl-12-ethoxy-2-[(4-ethylphenyl)methyl]-27-isobutyl-8-[2-[3-methoxy-4-(trifluoromethyl)phenyl]ethyl]-N,N,3′,3′,4,19,22,26,32,35-decamethyl-30-[(1S)-1-methylpropyl]-3,6,9,15,18,21,25,28,31,34,42-undecaoxo-spiro[1,4,7,10,16,19,22,26,29,32,35-undecazatricyclo[34.5.1.0^10,14]dotetracont-38-ene-17,1′-cyclobutane]-23-carboxamide]
[3]
  IC50: 2.9 nM

## CCO[C@@H]1C[C@H]2C(=O)NC3(CC(C)(C)C3)C(=O)N(C)[C@@H](C(CC)CC)C(=O)N(C)[C@H](C(=O)N3CCCCC3)CC(=O)N(C)[C@H]3CCC/C=C/c4ccc(cc4)C[C@@H](C(=O)N(C)CC(=O)N[C@@H](CCc4ccc(Cl)c(Cl)c4)C(=O)N2C1)N1CC/C=C\C[C@@H](C1=O)N(C)C(=O)CN(C)C(=O)[C@H]([C@@H](C)CC)NC3=O [PP2953]
[3]; [4]
  IC50: 33.4 nM

## CCO[C@@H]1C[C@H]2C(=O)NC3(CCC3)C(=O)N(C)[C@@H](C3CCCC3)C(=O)N(C)[C@H](C(=O)N3CCCCC3)CC(=O)N(C)[C@H]3CCC/C=C/c4ccc(cc4)C[C@@H](C(=O)N(C)CC(=O)N[C@@H](CCc4ccc(Cl)c(Cl)c4)C(=O)N2C1)N1CC/C=C\C[C@@H](C1=O)N(C)C(=O)CN(C1CC1)C(=O)[C@H]([C@@H](C)CC)NC3=O [PP2958]
[3]; [4]
  IC50: 19.5 nM

## CCO[C@@H]1C[C@H]2C(=O)NC3(CCC3)C(=O)N(C)[C@@H](C(CC)CC)C(=O)N(C)[C@H](C(=O)N3CCCCC3)CC(=O)N(C)[C@H]3CCC/C=C/c4ccc(cc4)C[C@@H](C(=O)N(C)CC(=O)N[C@@H](CCc4ccc(Cl)c(Cl)c4)C(=O)N2C1)N1CC/C=C\C[C@@H](C1=O)N(C)C(=O)CN(C1CC1)C(=O)[C@H]([C@@H](C)CC)NC3=O [PP3039]
[3]; [4]
  IC50: 18 nM

## CCCO[C@@H]1C[C@H]2C(=O)NC3(CC(C)(C)C3)C(=O)N(C)[C@@H](C3CCCC3)C(=O)N(C)[C@H](C(=O)N(C)C)CC(=O)N(C)[C@H]3CCCCc4ccc(cc4)C[C@@H](C(=O)N(C)CC(=O)N[C@@H](CCc4ccc(C(F)(F)F)c(OC)c4)C(=O)N2C1)N1CC/C=C\C[C@@H](C1=O)N(C)C(=O)CN(C1CC1)C(=O)[C@H]([C@@H](C)CC)NC3=O [PP3082]
[3]; [6]
  IC50: 1.7 nM

## CCC[C@H]1C(=O)N[C@@H]([C@@H](C)CC)C(=O)N(C2CC2)CC(=O)N(C)[C@H]2C/C=C\CCN(C2=O)[C@@H](Cc2ccc(C)cc2)C(=O)N(C)CC(=O)N[C@@H](CCc2ccc(C(F)(F)F)c(OC)c2)C(=O)N2C[C@H](OCC)C[C@H]2C(=O)N(C)C2(CCC2)C(=O)N(C)[C@@H](C2CCCC2)C(=O)N(C)[C@H](C(=O)N2CCCCC2)CC(=O)N1C [PP3096, (2S,8S,12R,14S,20S,23S,27S,30S,36S,38Z)-20-cyclopentyl-32-cyclopropyl-12-ethoxy-8-[2-[3-methoxy-4-(trifluoromethyl)phenyl]ethyl]-4,16,19,22,26,35-hexamethyl-30-[(1S)-1-methylpropyl]-23-(piperidine-1-carbonyl)-27-propyl-2-(p-tolylmethyl)spiro[1,4,7,10,16,19,2226293235-undecazatricyclo[34.5.1.0^10,14]dotetracont-38-ene-17,1′-cyclobutane]-3,6,9,15,18,21,25,28,31,34,42-undecone]
[3]; [6]
  IC50: 35.8 nM
